Measured values reported in publication PMC9767854, “Discovery and mechanism studies of a novel ATG4B inhibitor Ebselen by drug repurposing and its anti-colorectal cancer effects in mice” (Cell & Bioscience, 2022).

Columns and labels:
[1] = biological target: T1, endogenous ATG4B in HeLa cells (Homo sapiens, UniProt Q9Y4P1); experiment: Endogenous ATG4B activity in cells by FRET assay; type: cell-based
T1 construct: endogenous in cells; host or cells: HeLa
Text: (§1) Supplementary file 13578_2022_944_MOESM1_ESM.docx: Additional file 1: Figure S1. Screening of ATG4B inhibitors based on the approved drugs library by FRET assay. […] (D) Candidate compound number and name correspondence table, and IC50 calculation of nine commercially available compounds for ATG4B by FRET assay. Figure S2. […] Figure S3. […] Figure S5. […] Figure S6.

[2] = biological target: T2, ATG4B 2CS (C292/361S) mutant (Homo sapiens, UniProt Q9Y4P1, C292S/C361S); experiment: FRET-based assay, ATG4B 2CS mutant; type: biochemical; conditions: Ebselen 0.5 μM, 15-90 min; read-out: inhibition rate against ATG4B 2CS
T2 construct: 6xHis; made in house; host or cells: E. coli BL21(DE3)
Experimental: (§3) FRET-based assay for ATG4B or ATG4A activity was operated as previously described [5, 17]. Briefly, Recombinant protein ATG4B (0.75 μg/ml) or ATG4A (5 μg/ml) was incubated with compounds in reaction buffer (150 mM NaCl, 20 mM Tris–HCl, pH 8.0, 0.1% CHAPS, 1 mM EDTA) at 37 °C. After 30 min, substrate FRET-GATE-16 (50 μg/ml) was added to a final volume of 50 μl. The reaction was recorded via relative fluorescence intensity ratio of 527 nm/477 nm (RFU). The final inhibition rate of the compound for ATG4 was calculated as: (RFUcompound-RFUNC)/(RFUCON-RFUNC) × 100%; respectively, NC as negative control without inhibitor, CON as control without enzymes. For ATG4 activity determination in cells and tissues, cells or separated tumor samples were homogenized in a native lysis buffer (150 mM NaCl, 20 mM Tris–HCl, pH 7.6, 1% TritonX-100, 1 mM EDTA) without protease inhibitors. Then 5 μg total proteins from each sample was added into FRET assay system after clean supernatant proteins were separated. The reaction was recorded via relative fluorescence intensity ratio of 527 nm/477 nm. Finally, the inhibition rates of ATG4B were calculated with the vehicle or CM group as the negative control (ATG4 activity defined as 100%).

[3] = biological target: T3, ATG4B (cell lysates from ATG4B-Flag 293 T) (Homo sapiens, UniProt Q9Y4P1); experiment: In vitro cleavage assay of LC3B-GST with ATG4B-overexpressing cell lysates; type: biochemical; conditions: compounds 10 μM, 30 min at 37 °C
T3 construct: expressed in transfected cells; host or cells: 293T (ATG4B-Flag 293 T line)
Experimental: A, B Cell lysates (1.5 μg) from ATG4B-Flag 293 T were incubated with different compounds (10 μM) for 30 min at 37 °C, then recombinant LC3B-GST (3 μg) were added up to 20 μl and inhibitions were detected by SDS-PAGE and CBB staining (A). B Statistical chart of gel results of three repeated experiments. Ebselen was abbreviated as Ebs, the same below. CON as control without lysate, NC as negative control without compound.

ATG4B = biological target: T4, ATG4B (Homo sapiens, UniProt Q9Y4P1); experiment: Denaturing mass spectrometry of covalent binding; conditions: ATG4B 20 μM, compound 60 μM, 1 h at 37 °C; shift of 275 Da on 57,200 Da form
T4 construct: 6xHis; made in house; host or cells: E. coli BL21(DE3)
T4 sequence (Q9Y4P1 1-393): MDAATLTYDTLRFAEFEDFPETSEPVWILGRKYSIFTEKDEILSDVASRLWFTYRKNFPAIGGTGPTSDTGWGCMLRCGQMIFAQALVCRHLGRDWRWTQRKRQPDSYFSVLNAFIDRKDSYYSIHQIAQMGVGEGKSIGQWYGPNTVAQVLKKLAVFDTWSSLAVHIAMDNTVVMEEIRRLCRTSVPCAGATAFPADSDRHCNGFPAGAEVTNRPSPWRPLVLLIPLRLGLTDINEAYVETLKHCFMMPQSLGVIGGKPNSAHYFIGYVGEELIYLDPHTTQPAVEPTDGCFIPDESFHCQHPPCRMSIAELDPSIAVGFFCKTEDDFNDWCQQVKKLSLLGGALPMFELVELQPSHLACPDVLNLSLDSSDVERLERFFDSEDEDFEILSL
Experimental: Analysis of covalent binding between protein and ligand was performed by denaturing mass spectrometry. ATG4B WT and related mutant (20 μM) were incubated with or without compound (60 μM) in phosphate buffer for 1 h at 37℃. Then the samples were desalted using ultrafiltration spin columns (0.5 ml, 10 kDa MWCO, PES, Sartorius) and buffer-exchanged into Milli-Q water. Subsequently, samples were diluted containing 0.1% v/v formic acid before being subjected to denaturing electrospray ionization mass spectrometry analysis (TOF, Waters, SYNAPT G2-Si). Spectrum data were processed with MassLynx (Waters).

[4] = Body weight and organ H&E in xenografted mice; type: in vivo, BALB/c-nu/nu mice; conditions: 5, 10, 20 mg/kg i.p. every two days
Experimental: Four- to six-weeks-old BALB/C nu/nu female mice purchased from the Experimental Animal Center of Sun Yat-Sen University, were approved by the Animal Ethics Committee at Sun Yat-sen University and kept in specific-pathogen-free environment. Approximately 2 × 10^6 SW620 cells or 1 × 10^7 HCT116 cells were injected subcutaneously into the dorsal flank on the right side of the mice. Different groups were divided randomly when the tumor volume was approximately 60–80 mm^3, before drug administration intraperitoneally (i.p.). Tumor volume was measured by calipers and calculated using the equation: 0.5 × length × width^2. At the end of the experiments, the mice were sacrificed and tumors were dissected and weighed. In particular, we employed Servicebio (Wuhan, China) to carry out H&E staining and immunohistochemistry assay.
as §1

HCT116 = experiment: Autophagy flux by LC3B-II western blot in HCT116; type: cell-based; conditions: Ebselen 5 and 10 μM with CQ 40 μM
Experimental: Fig. 5 Ebselen suppresses autophagy flux via inhibition of ATG4B. A, B HeLa cells were treated with Torin 1 (2 μM) or CQ (40 μM) and detected by western blot. C, D SW620 cells were transduced with sgCon and sgATG4B lentiviruses, respectively. Then cells were treated with CQ (40 μM) and detected by western blot. E, F HCT116 were treated with Ebselen (5 and 10 μM) or CQ (40 μM) and subjected to western blot. G, H SW620 were treated with Ebselen (10 μM) or CQ (40 μM) and western blotting was carried out to detect the protein levels. I, J Immunofluorescence analysis of endogenous LC3B in HCT116 treated with Ebselen (10 μM) or CQ (40 μM). Dots numbers for LC3B were derived from counting at least 20 cells and 5 fields from three independent replicated experiments. Bar = 10 μm. K HCT116 cells were treated with 2 μM Torin 1 in the presence or absence of 10 μM Ebselen for 12 h, then the level ratio of long-lived proteins was measured by flow cytometry
Immunoblotting assay was performed reportedly previously. Commonly, cells were lysed in ice-cold RIPA lysis buffer (Beyotime, P0013B) supplemented with Pierce™ protease inhibitor tablet (ThermoFisher Scientific, A32965). […]

[5] = system: ATG4 (mainly ATG4B) in tumors; experiment: ATG4 activity in xenografted tumors by FRET assay; type: in vivo, BALB/c-nu/nu mice; conditions: SW620 xenografts, 5, 10, 20 mg/kg
Experimental: as §3

ATG4B KO HCT116 = experiment: Cell viability by CCK-8 assay, ATG4B KO HCT116; type: cell-based
Experimental: (§2) WT/ATG4B KO HCT116, WT/ATG4B KO SW620 and WT/ATG4B KO RKO cells were seeded in 96-well plate at 1000–1500 cells per well for cell viability assay, and seed in 6-well plate at 1 × 10^5 cells per well for cell number counting. After 12 h, the indicated drugs were added to the medium and cultured for another 96 h. Total viable cell numbers were counted by a cell counter (BioRAD), and cell viability was determined by cell-count-8 assay kit (CCK-8, Bimake, B34304) according to the manufacturer’s protocol.

HCT116 cells = experiment: Cell counting and colony formation assays; type: cell-based
Experimental: For colony formation, WT HCT116 and ATG4B KO HCT116 cells were seeded in 6-well plates at 800 cells per well and cultured for 9–12 days, respectively. Concurrently, medium containing indicated compounds were replaced every 3 days, before the cells were fixed in 4% paraformaldehyde for 20 min and washed with PBS three times. Then colonies were stained with crystal violet (Beyotime, C0121) for 1 h and excess dyes were washed with PBS. Eventually, colonies more than 1 mm were counted in at least three independent experiments.
as §2

T2 sequence (Q9Y4P1 whole entry C292S/C361S): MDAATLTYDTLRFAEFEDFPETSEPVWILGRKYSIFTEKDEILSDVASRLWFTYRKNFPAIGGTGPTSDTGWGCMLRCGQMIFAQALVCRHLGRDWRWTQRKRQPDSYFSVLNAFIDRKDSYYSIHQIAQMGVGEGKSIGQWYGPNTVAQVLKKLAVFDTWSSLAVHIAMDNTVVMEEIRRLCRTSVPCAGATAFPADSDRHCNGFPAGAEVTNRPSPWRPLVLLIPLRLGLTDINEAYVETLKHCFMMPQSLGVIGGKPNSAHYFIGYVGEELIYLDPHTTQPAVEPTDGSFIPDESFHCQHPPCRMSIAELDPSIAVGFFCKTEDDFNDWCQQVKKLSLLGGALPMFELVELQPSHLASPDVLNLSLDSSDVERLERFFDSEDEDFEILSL

O=c1c2ccccc2[se]n1-c1ccccc1 [Ebselen]
inhibition of endogenous ATG4B in cells [1]: inhibited in a time- and dose-dependent manner | inhibition at 0.5 µM [2]: < 90% | cleavage activity of ATG4B on LC3B-GST in cell lysates [3]: strongly suppressed | covalent binding to ATG4B (ATG4B): covalently binds to ATG4B | body weight change or organs damage [4]: no obvious mice body weight change or organs damage | autophagic flux (LC3B-II) (HCT116): inhibition of autophagic flux | activity of ATG4 in tumors [5]: significantly inhibited in a dose-dependent manner | effect on viability of ATG4B deficient cells (ATG4B KO HCT116; Fig. 6F): almost no effect | IC50 (ATG4B KO HCT116; Homo sapiens, HCT-116, CCK-8, 96 h): 28.1 µM | cell proliferation and colony formation (HCT116 cells): significantly inhibit
